In patent US20110045101A1, “FUNGICIDAL SUBSTITUTED AZOLES” (E.I. Du Pont De Nemours and Company, priority 2009, published 2011):
Marks after values point to notes of the source that are not given here.

Assays:
Format in all cases: in vivo
Settings in all cases: 100 = 100% disease control
Botrytis cinerea = test: Test C: tomato Botrytis on tomato seedlings, sprayed the day before inoculation, visual disease rating
In short: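 Disease ratings refer to tomato seedlings treated by run-off spraying with compound suspensions, mostly 200 ppm (500 g/ha equivalent) and in marked cases 40 ppm. Carrier: acetone/purified water 50/50 with 250 ppm polyhydric alcohol ester surfactant, after predissolving in acetone.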

Septoria nodorum = test: Test F: wheat glume blotch on wheat seedlings, sprayed the day before inoculation, visual disease rating
In short: (§1)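 Acetone solution (3% of final volume) of each compound is suspended in 50/50 acetone/water with 250 ppm Trem® 014. Plants are sprayed to run-off at 200 ppm, equivalent to 500 g/ha, or at 40 ppm for starred values.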

[1] = system: Puccinia recondita f. sp. tritici; test: Test H: wheat leaf rust, test suspension sprayed after inoculation of wheat seedlings, visual disease rating
In short: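 Wheat seedlings inoculated with P. recondita spores, held 24 h saturated at 20 °C, then 2 days in growth chamber at 20 °C; compound suspension (acetone/water with Trem 014) sprayed to run-off afterwards. Rated visually; 200 ppm (≈500 g/ha) unless marked *, which denotes 40 ppm.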

[2] = system: Puccinia recondita f. sp. tritici; test: Test I: wheat leaf rust on wheat seedlings, sprayed the day before inoculation, visual disease rating
In short: as §1

[3] = system: Erysiphe graminis f. sp. tritici; test: Test J: wheat powdery mildew on wheat seedlings, sprayed the day before inoculation, visual disease rating
In short: as §1

Septoria tritici = test: Test G: wheat leaf blotch on wheat seedlings, sprayed the day before inoculation, visual disease rating
In short: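 Visual disease ratings taken 19 days after transfer to a 20° C growth chamber, following 48 h in saturated atmosphere at 24° C. Seedlings had been sprayed to run-off one day before spore inoculation. Dose 200 ppm, or 40 ppm where starred.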

Alternaria solani = test: Test D: tomato early blight, sprayed the day before inoculation, visual disease rating
In short: as §1

[4] = 200 ppm, 0 = no control relative to controls
[5] = 40 ppm (marked *), 0 = no control

| Structure (SMILES) | Test C disease control rating (Botrytis cinerea; [4]) [%] | Test F disease control rating (Septoria nodorum; [4]) [%] | Test H disease control rating [1, 4] [%] | Test I disease control rating [2, 4] [%] | Test J disease control rating [3, 4] [%] | Test G disease control rating (Septoria tritici; [4]) [%] | Test D disease control rating (Alternaria solani; [4]) [%] | also measured |
| --- | --- | --- | --- | --- | --- | --- | --- | --- |
| COc1ccc(F)c(-c2c(Cl)nc(Cl)n2-c2ccc(F)cc2)c1F [compound 390] | 100 | 99 | 18 | 100 | 100 | 95 | 100 | – |
| COc1cc(F)c(-c2c(Cl)nc(Cl)n2-c2ccc(Cl)nc2Cl)c(F)c1 [compound 674] | 99 | 98 | 98 | 100 | 94 | 99 | 93 | – |
| Cc1nc(Cl)n(-c2ccc(Cl)c(F)c2)c1-c1cccnc1Cl [compound 360] | 100 | 0 | 9 | 99 | 98 | 95 | 99 | – |
| COc1ccc(F)c(-c2c(Cl)nc(C)n2-c2cccc(C)c2)c1F [compound 335] | – | – | – | – | – | – | – | Test C disease control rating (Botrytis cinerea; [5]): 100* %; Test F disease control rating (Septoria nodorum; [5]): 82* %; Test H disease control rating [1, 5]: 0* %; Test I disease control rating [2, 5]: 99* %; Test J disease control rating [3, 5]: 99* %; Test G disease control rating (Septoria tritici; [5]): 91* %; Test D disease control rating (Alternaria solani; [5]): 100* % |
| Cc1ncc(Cc2c(F)cc(F)cc2F)n1-c1cc(Cl)cc(Cl)c1 [compound 539] | 36 | 0 | 0 | 93 | 95 | 7 | 0 | – |
| CN(C)c1ncn(-c2cccc(F)c2)c1-c1c(F)cc(F)cc1F [compound 363] | 99 | 0 | 9 | 0 | 0 | 53 | 0 | – |
| Fc1ccc(F)c(-c2c(Br)nc(Cl)n2-c2ccc(Cl)cc2)c1Cl [compound 385] | – | – | – | – | – | – | – | Test C disease control rating (Botrytis cinerea; [5]): 99* %; Test F disease control rating (Septoria nodorum; [5]): 0* %; Test H disease control rating [1, 5]: 0* %; Test I disease control rating [2, 5]: 95* %; Test J disease control rating [3, 5]: 99* %; Test G disease control rating (Septoria tritici; [5]): 95* %; Test D disease control rating (Alternaria solani; [5]): 99* % |
| Cc1ccc(-n2c(Cl)nc(Cl)c2-c2c(F)ccc(C#N)c2F)cc1 [compound 680] | 99 | 98 | 0 | 100 | 100 | 100 | 100 | – |
| Clc1ccc(-c2c(Cl)nc(Cl)n2Cc2cccc(Cl)c2)cc1 [compound 361] | 99 | 0 | 9 | 74 | 80 | 93 | 0 | – |
| COc1ccc(F)c(-c2c(Br)ncn2-c2ccc(C)cc2)c1F [compound 473] | 99 | 0 | 0 | 100 | 100 | 97 | 100 | – |
| COc1cc(F)c(-c2c(Cl)nc(C)n2-c2ccc(F)c(F)c2)c(F)c1 [compound 499] | 99 | 100 | 100 | 100 | 100 | 93 | 100 | – |
| Cc1ncn(-c2ccc(Cl)c(F)c2)c1-c1ccnc(Br)c1 [compound 345] | 64 | 0 | 0 | 0 | 0 | 27 | 0 | – |
| COc1cc(F)c(-c2c(Cl)nc(C)n2-c2ccc(C)c(Cl)c2)c(F)c1 [compound 601] | – | – | – | – | – | – | – | Test C disease control rating (Botrytis cinerea; 40 ppm (marked *)): 99* %; Test F disease control rating (Septoria nodorum; 40 ppm (marked *)): 87* %; Test H disease control rating ([1]; 40 ppm (marked *)): 7* %; Test I disease control rating ([2]; 40 ppm (marked *)): 97* %; Test J disease control rating ([3]; 40 ppm (marked *)): 97* %; Test G disease control rating (Septoria tritici; 40 ppm (marked *)): 99* %; Test D disease control rating (Alternaria solani; 40 ppm (marked *)): 98* % |
| COc1ccc(F)c(-c2c(Cl)nc(Br)n2-c2ccc(F)cc2)c1F [compound 314] | 99 | 100 | 32 | 100 | 100 | 93 | 100 | – |
| Cc1nc(Cl)c(-c2c(F)ccc(F)c2F)n1-c1cccc(F)c1 [compound 369] | 99 | 98 | 74 | 99 | 99 | 92 | 100 | – |
| COc1ccc(F)c(-c2c(Cl)nc(Br)n2-c2ccc(Cl)c(F)c2)c1F [compound 317] | 100 | 100 | 17 | 99 | 100 | 95 | 100 | – |
| COc1cc(F)c(-c2c(Br)nc(Cl)n2-c2ccc(C(F)(F)F)nc2)c(F)c1 [compound 706] | 57 | 0 | 25 | 86 | 100 | 99 | 100 | – |
| Cc1nc(Cl)n(-c2ccc(Cl)c(F)c2)c1-c1cncc(Br)c1 [compound 356] | 98 | 0 | 17 | 0 | 0 | 72 | 57 | – |
| COc1cc(F)c(-n2nnc(C)c2-c2ccc(Cl)cc2)c(F)c1 [compound 595] | 100 | 0 | 22 | 74 | 98 | 96 | 80 | – |
| Cc1nc(Cl)n(-c2ccc(F)cc2)c1-c1c(F)ccc(F)c1F [compound 413] | – | – | – | – | – | – | – | Test C disease control rating (Botrytis cinerea; [5]): 100* %; Test F disease control rating (Septoria nodorum; [5]): 0* %; Test H disease control rating [1, 5]: 9* %; Test I disease control rating [2, 5]: 0* %; Test J disease control rating [3, 5]: 0* %; Test G disease control rating (Septoria tritici; [5]): 14* %; Test D disease control rating (Alternaria solani; [5]): 99* % |
